Results: the NIST ThermoML archive (doi:10.1021/je034261a)
Numbers after ± are expanded uncertainties.

Experiments:
[1] = for mass density: 101.33 kPa, Liquid; for Normal melting temperature / Glass transition temperature: DTA
[2] = molar heat capacity at constant pressure; conditions: 101.33 kPa, Liquid, Small sample (50 mg) DSC

CCn1cc[n+](C)c1C.O=S(=O)([N-]S(=O)(=O)C(F)(F)F)C(F)(F)F gave a mass density ([1]; 296.15 K) of 1491.3 ± 2.7 kg/m3, a mass density ([1]; 303.75 K) of 1485.5 ± 2.7 kg/m3 and a mass density ([1]; 313.55 K) of 1476.9 ± 2.8 kg/m3. The mass density ([1]; 323.35 K) was 1468 ± 2.9 kg/m3, the mass density ([1]; 333.65 K) was 1457.2 ± 3 kg/m3 and the Normal melting temperature ([1]; Crystal) was 25.0 ± 1 °C. The “molar heat capacity at constant pressure” value ([2]; 309.15 K) was 492.7 ± 9.9 J/K/mol and the “molar heat capacity at constant pressure” value ([2]; 323.15 K) was 498.8 ± 10 J/K/mol.
Compound CCCCn1cc[n+](C)c1.O=S(=O)([O-])C(F)(F)F [1-butyl-3-methylimidazolium trifluoromethanesulfonate] has a mass density ([1]; 295.75 K) of 1301.3 ± 4.1 kg/m3, a mass density ([1]; 303.95 K) of 1296.5 ± 4.1 kg/m3 and a mass density ([1]; 313.35 K) of 1289.4 ± 4.1 kg/m3. For the same compound, the mass density ([1]; 328.75 K) was 1279 ± 4.2 kg/m3, the mass density ([1]; 342.95 K) was 1270 ± 4.2 kg/m3 and the Normal melting temperature ([1]; Crystal) was 13.0 ± 1 °C. For the same compound, the “molar heat capacity at constant pressure” value ([2]; 298.15 K) was 417.2 ± 8.3 J/K/mol and the “molar heat capacity at constant pressure” value ([2]; 323.15 K) was 423.1 ± 8.5 J/K/mol.
CCCCn1cc[n+](C)c1.F[B-](F)(F)F [1-butyl-3-methylimidazolium tetrafluoroborate] showed a mass density ([1]; 295.45 K) of 1204.8 ± 2.3 kg/m3, a mass density ([1]; 303.85 K) of 1200.5 ± 2.4 kg/m3 and a mass density ([1]; 313.55 K) of 1194 ± 2.5 kg/m3. It also gave a mass density ([1]; 328.25 K) of 1185 ± 2.6 kg/m3, a mass density ([1]; 343.85 K) of 1173.7 ± 2.7 kg/m3 and a Glass transition temperature [1] of -85.0 ± 3 °C. For the same compound, the “molar heat capacity at constant pressure” value ([2]; 298.15 K) was 351.5 ± 7 J/K/mol and the “molar heat capacity at constant pressure” value ([2]; 323.15 K) was 358 ± 7.2 J/K/mol.
CCC[n+]1ccn(C)c1C.O=S(=O)([N-]S(=O)(=O)C(F)(F)F)C(F)(F)F gave a mass density ([1]; 295.15 K) of 1456.7 ± 6.1 kg/m3, a mass density ([1]; 304.25 K) of 1454.2 ± 6.4 kg/m3 and a mass density ([1]; 313.65 K) of 1446.4 ± 6.7 kg/m3. For the same compound, the mass density ([1]; 324.35 K) was 1438.6 ± 7 kg/m3, the mass density ([1]; 335.15 K) was 1427.5 ± 7.4 kg/m3 and the mass density ([1]; 344.65 K) was 1415.5 ± 7.7 kg/m3. For the same compound, the Glass transition temperature [1] was -82.0 ± 3 °C, the “molar heat capacity at constant pressure” value ([2]; 298.15 K) was 554.5 ± 11 J/K/mol and the “molar heat capacity at constant pressure” value ([2]; 323.15 K) was 558.7 ± 11 J/K/mol.
Work on CCCCn1cc[n+](C)c1C.F[B-](F)(F)F [1-butyl-2,3-dimethylimidazolium tetrafluoroborate] yielded a mass density ([1]; 300.15 K) of 1093.5 ± 3.5 kg/m3, a mass density ([1]; 313.15 K) of 1076.2 ± 3.5 kg/m3 and a mass density ([1]; 323.15 K) of 1063.4 ± 3.5 kg/m3. The Normal melting temperature ([1]; Crystal) was 37.0 ± 1 °C, the Glass transition temperature [1] was -68.0 ± 3 °C and the “molar heat capacity at constant pressure” value ([2]; 330.15 K) was 375.3 ± 7.5 J/K/mol. The “molar heat capacity at constant pressure” value ([2]; 372.15 K) was 406.5 ± 8.1 J/K/mol.
In the case of CCn1cc[n+](C)c1.O=S(=O)([N-]S(=O)(=O)C(F)(F)F)C(F)(F)F, the mass density ([1]; 296.15 K) is reported as 1521.3 ± 2.7 kg/m3, the mass density ([1]; 303.95 K) is reported as 1515.9 ± 2.8 kg/m3 and the mass density ([1]; 313.85 K) is reported as 1506.5 ± 2.9 kg/m3. For the same compound, the mass density ([1]; 323.45 K) was 1496.7 ± 3 kg/m3, the mass density ([1]; 333.65 K) was 1485.8 ± 3.1 kg/m3 and the Glass transition temperature [1] was -92.0 ± 3 °C. The Normal melting temperature ([1]; Metastable crystal) was -17.0 ± 2 °C, the “molar heat capacity at constant pressure” value ([2]; 298.15 K) was 524.3 ± 10 J/K/mol and the “molar heat capacity at constant pressure” value ([2]; 323.15 K) was 532.2 ± 11 J/K/mol.
CCCCn1cc[n+](C)c1.N#CN=C=[N-] [1-butyl-3-methylimidazolium dicyanamide] showed a mass density ([1]; 297.15 K) of 1058 ± 4 kg/m3, a mass density ([1]; 312.95 K) of 1052.5 ± 4.3 kg/m3 and a mass density ([1]; 324.35 K) of 1046.6 ± 4.4 kg/m3. It also gave a mass density ([1]; 333.95 K) of 1041.5 ± 4.6 kg/m3, a mass density ([1]; 344.15 K) of 1034 ± 4.8 kg/m3 and a mass density ([1]; 355.85 K) of 1025.8 ± 5 kg/m3. For the same compound, the Normal melting temperature ([1]; Crystal) was -6.0 ± 1 °C, the Glass transition temperature [1] was -90.0 ± 3 °C and the “molar heat capacity at constant pressure” value ([2]; 298.15 K) was 364.6 ± 16 J/K/mol. For the same compound, the “molar heat capacity at constant pressure” value ([2]; 323.15 K) was 370 ± 16 J/K/mol.
In the case of CCCCn1cc[n+](C)c1C.F[P-](F)(F)(F)(F)F [1-butyl-2,3-dimethylimidazolium hexafluorophosphate], the mass density ([1]; 295.65 K) is reported as 1241.6 ± 4 kg/m3, the mass density ([1]; 313.15 K) is reported as 1219 ± 4 kg/m3 and the mass density ([1]; 323.15 K) is reported as 1205.5 ± 4 kg/m3. The Glass transition temperature [1] was -58.0 ± 3 °C, the “molar heat capacity at constant pressure” value ([2]; 298.15 K) was 433.6 ± 8.7 J/K/mol and the “molar heat capacity at constant pressure” value ([2]; 323.15 K) was 449.1 ± 9 J/K/mol.
In the case of CCCCn1cc[n+](C)c1.F[P-](F)(F)(F)(F)F [1-butyl-3-methylimidazolium hexafluorophosphate], the Normal melting temperature ([1]; Crystal) is reported as 11.0 ± 1 °C, the Glass transition temperature [1] is reported as -76.0 ± 3 °C and the “molar heat capacity at constant pressure” value ([2]; 298.15 K) is reported as 397.6 ± 8 J/K/mol. The “molar heat capacity at constant pressure” value ([2]; 323.15 K) was 405.1 ± 8.1 J/K/mol.
In the case of CCCCn1cc[n+](C)c1.[Cl-] [1-butyl-3-methylimidazolium chloride], the Glass transition temperature [1] is reported as -69.0 ± 3 °C, the “molar heat capacity at constant pressure” value ([2]; 298.15 K) is reported as 322.7 ± 14 J/K/mol and the “molar heat capacity at constant pressure” value ([2]; 323.15 K) is reported as 333.7 ± 14 J/K/mol.
With CCCCn1cc[n+](C)c1.[Br-] [1-butyl-3-methylimidazolium bromide] the Glass transition temperature [1] was -50.0 ± 3 °C, the “molar heat capacity at constant pressure” value ([2]; 298.15 K) was 316.7 ± 13 J/K/mol and the “molar heat capacity at constant pressure” value ([2]; 323.15 K) was 323.6 ± 14 J/K/mol.
Work on CCCC[n+]1ccn(C)c1.O=S(=O)([N-]S(=O)(=O)C(F)(F)F)C(F)(F)F yielded a mass density ([1]; 296.45 K) of 1438.6 ± 2.6 kg/m3, a mass density ([1]; 304.15 K) of 1433.6 ± 2.7 kg/m3 and a mass density ([1]; 313.45 K) of 1424.7 ± 2.8 kg/m3. For the same compound, the mass density ([1]; 323.35 K) was 1414.2 ± 2.8 kg/m3, the mass density ([1]; 333.75 K) was 1405.4 ± 2.9 kg/m3 and the Normal melting temperature ([1]; Crystal) was -2.0 ± 1 °C. For the same compound, the Glass transition temperature [1] was -86.0 ± 3 °C, the “molar heat capacity at constant pressure” value ([2]; 298.15 K) was 536.3 ± 11 J/K/mol and the “molar heat capacity at constant pressure” value ([2]; 323.15 K) was 543.9 ± 11 J/K/mol.
